Measured values from patent publication US20060210497A1, “Novel resorcinol derivatives” (Unilever Home & Personal Care USA, Division Of Conopco, Inc., priority 2005, published 2006).
pIC50: −log10 of the molar value.

Tests used:
Mushroom tyrosinase = Mushroom tyrosinase assay; type: biochemical; conditions: for pIC50: L-DOPA 0.5 mM, tyrosinase 0.1 mg/ml, phosphate pH 7.0, room temperature; for potency of tyrosinase inhibition, compared in words: cyclohexyl methyl resorcinol compared with ethyl resorcinol
Procedure: Mushroom Tyrosinase Assay Mushroom tyrosinase inhibition is indicative of reduction in melanin synthesis, thereby showing skin lightening effect. Reagents: • Assay buffer: phosphate (100 mM, pH 7.0) • Mushroom tyrosinase stock solution (Sigma-Aldrich, Batch # 023K7024): 0.2 mg/ml in assay buffer • L-DOPA stock solution: 1.05 mM in assay buffer • Test compound stock solutions: 10 mM in DMSO Assay Conditions: • Mushroom tyrosinase: 0.1 mg/ml in assay buffer • L-DOPA: 0.5 mM in assay buffer • Test compounds: various concentrations, 2.5% final [DMSO] • Temperature: room temperature Procedure: […] The reaction is started by adding mushroom tyrosinase (100 uL of stock solution) into each well and the absorbance is monitored at 490 nm over a time period of 30 sec to 2 min. The initial reaction velocity in the presence or absence of test compounds is calculated ([…] nm/ min) and the % inhibition of test compounds is calculated using the following equation: [formula] where v0 is the initial reaction velocity in the absence of compound, v is the slope of the reaction in the absence of mushroom tyrosinase and vi is the slope of the reaction in the presence of test compound. The data (% inhibition vs. [test compound]) is fitted using data analysis software and the concentration of test compound at 50% inhibition (IC50) is determined from the fitted data. The IC50 value refers to the skin lightener concentration that results in 50% tyrosinase inhibition relative to the control (with a goal being obtaining maximum tyrosinase inhibition at minimum concentration).

human sebocytes = assay: Sebocyte assay (14C-acetate incorporation, sebocyte lipid synthesis); type: cell-based
Procedure: Sebocyte Assay Procedure:
Secondary cultures of human sebocytes obtained from an adult […] were grown in 96-well tissue culture plates (Packard) until three days post-confluence. Sebocyte growth medium consisted of Clonetics Keratinocyte Basal Medium (KBM) supplemented with 14 ug/ml bovine pituitary extract, 0.4 ug/ml hydrocortisone, 5 ug/ml insulin, 10 ng/ml epidermal growth factor, 1.2×10^−10 M cholera toxin, 100 units/ml penicillin, and 100 ug/ml streptomycin. All cultures were incubated at 37° C. in the presence of 7.5% CO2. Medium was changed three times per week.
On the day of experimentation, the growth medium was removed and the sebocytes washed three times with sterile Dulbecco's Modified Eagle Medium (DMEM; phenol red free). Fresh DMEM was added to each sample (triplicates) with 2-microliters of test agent solubilized in ethanol. Controls consisted of addition of ethanol alone. Each plate was returned to the incubator for 20-hours followed by the addition of ^14C-acetate buffer (5 mM final concentration, 56 mCi/mmol specific activity). Sebocytes were returned to the incubator for 4-hours, after which, each culture was rinsed 3-times with phosphate buffered saline to remove unbound label. Radioactive label remaining in the sebocytes was determined using a Packard TopCount scintillation counter. Statistical significance (p value) was calculated using student's t-test. Phenol Red, a known sebum suppressive agent, was employed as a positive control.

## CCc1ccc(O)cc1O [4-ethyl resorcinol (ER), 4-ethyl resorcinol, reference compound]
Mushroom tyrosinase
  pIC50: 5.96
  potency of tyrosinase inhibition, compared in words: comparable potency

## Oc1ccc(CC2CCCCC2)c(O)c1 [CHMR, 4-cyclohexylmethyl resorcinol]
Mushroom tyrosinase
  pIC50: 6.02
  potency of tyrosinase inhibition, compared in words: comparable potency
Human sebocytes; Homo sapiens, 10 uM test agent, 20 h incubation then 4 h 14C-acetate label, read-out: % of Control (ethanol)
  activity at 10 µM: 98.9%
Human sebocytes; Homo sapiens, 100 uM test agent, 20 h incubation then 4 h 14C-acetate label, read-out: % of Control (ethanol)
  activity at 100 µM: 69.3%
Human sebocytes; concentration on the order of about 100 micro-molar
  reduction in sebocyte lipid synthesis as compared to the vehicle control: statistically significant reduction

## O=S1(=O)OC(c2ccc(O)cc2)(c2ccc(O)cc2)c2ccccc21 [Phenol Red, reference compound]
Human sebocytes; Homo sapiens, 28 uM test agent, 20 h incubation then 4 h 14C-acetate label, read-out: % of Control (ethanol)
  activity at 28 µM: 84.4%
Human sebocytes; Homo sapiens, 280 uM test agent, 20 h incubation then 4 h 14C-acetate label, read-out: % of Control (ethanol)
  activity at 280 µM: 45.9%
